Experiments:
[1] = test system: U-87MG cells (naive and Toca 511-transduced); assay: In vitro 5-FC sensitivity assay (XTT viability); type: cell-based, human; settings: day 6
Description: (§1) Tu-2449 and U-87MG cells were infected with ˜1×10^4 transducing units (TU) ml^−1 of Toca 511 in the presence of polybrene (8 mgml^−1). Cells were passaged 2-3 times a week for 17 days. […] Cells were seeded on day 0 at a concentration of 1×10^3 cells per well of a 96-well plate in […] of culture medium (Dulbecco's modified Eagle's mediump10% fetal calf serum+gentamicin (17 mg per 100 ml)). On day 1, […] of culture medium containing 5-FC (range 0-1000 mgml^−1), TMZ (range 0-100 mgml^−1) or both drugs (5-FC (range 0-1.6 mgml^−1) and TMZ (2 mgml^−1)) was added to the cells. Viability was measured on day 6 using Cell Proliferation Kit II (XTT) (Roche, Indianapolis, Ind., USA) as recommended by the manufacturer.
(§2) Two glioma lines U-87MG (TMZ-sensitive) and Tu-2449 (TMZ-resistant) were chosen to examine the compatibility of TMZ and Toca 511p5-FC treatment in previously infected cells. These two cell lines were cultured as either non-transduced control or 100% Toca 511-transduced cells. Sensitivity to 5-FC was examined by measuring cell viability after culture in increasing amounts of 5-FC. […] In addition, cell viability was examined in the nontransduced and transduced cell lines treated with increasing amounts of TMZ.

[2] = test system: Tu-2449 cells (naive and Toca 511-transduced); assay: In vitro 5-FC sensitivity assay (XTT viability); type: cell-based, mouse; settings: day 6
Description: as §1, §2

[3] = pharmacokinetic studies; cited from earlier work
[4] = test system: five glioma cell lines (U-87MG, LN-18, LN-229, 8-MG-BA, Tu-2449); type: cell-based, human and mouse
Description: (§3) Two different TMZ schedules were tested. To test the effect of preincubation with TMZ, cells were seeded at a density of 1×10^5 cells per well on six-well plates. After 24 h, different concentrations of TMZ were added to the cells. The next day, cells were infected with RRV-GFP vector at a multiplicity of infection of 0.1. To test the effect of concomitant TMZ, cells were seeded at a density of 1×10^5 cells per well on six-well plates. After 48 h, cells were infected with RRV-GFP vector at a multiplicity of infection of 0.1 in the presence of different concentrations of TMZ. The following day, cells were transferred to T25 flasks keeping the indicated TMZ concentration. Cells were analyzed three times a week by enhanced green fluorescent protein fluorescence-activated cell sorting analysis for virus spread, maintaining the indicated TMZ concentration during the entire experiment.
(§4) To test any possible effect of TMZ on the spread of Toca 511, the same panel of glioma cells was treated with different concentrations of TMZ depending on the TMZ sensitivity of the cells determined in the clonogenic assay in FIG. 1b. In addition, vector with the same backbone as Toca 511 but encoding a GFP transgene (RRV-GFP) was used to assess vector spread by fluorescence-activated cell sorting analysis. Two TMZ treatment schedules were tested. […]

LN-229 = assay: In vitro RRV-GFP spread (FACS); type: cell-based, human; settings: 1 and 2 mgml^−1 TMZ added 24 h before RRV-GFP, by day 16
Description: as §3
(§5) To test any possible effect of TMZ on the spread of Toca 511, the same panel of glioma cells was treated with different concentrations of TMZ depending on the TMZ sensitivity of the cells determined in the clonogenic assay in FIG. 1b. In addition, vector with the same backbone as Toca 511 but encoding a GFP transgene (RRV-GFP) was used to assess vector spread by fluorescence-activated cell sorting analysis. Two TMZ treatment schedules were tested. The first schedule tested treatment with varying concentrations of TMZ before and during the time of vector infection, and the second schedule tested treatment with varying concentrations of TMZ at the same time as the addition of vector. In the first schedule, glioma cells were incubated with different concentrations of TMZ 24 h before the addition of RRVGFP at a multiplicity of infection of 0.1. […] There was an initial lag or decrease in GFP positivity at earlier time points (FIG. 2a). […] In the second schedule, when TMZ and RRV-GFP were added to the glioma cells concomitantly, the same trend was observed; after an initial lag, cells reached nearly 100% GFP positivity in the presence of TMZ (FIG. 2b). The observed infectivity lag was likely due to induction of apoptosis in a certain percentage of cells with TMZ treatment. Surviving cells were still susceptible to infection with RRV-GFP and able to produce more RRV-GFP virus for further infection and spread within the culture dish. […] Rather the data is consistent with the conclusion that slowing of tumor cell replication with the anticancer drug TMZ, slows the replication of the RRV because of the inhibition of cancer cell replication and the requirement for cell replication for productive infection with RRV.

8-MG-BA = assay: In vitro RRV-GFP spread (FACS); type: cell-based, human; settings: 1 and 2 mgml^−1 TMZ added 24 h before RRV-GFP, by day 16
Description: as §3, §5

LN-18 = assay: In vitro RRV-GFP spread (FACS); type: cell-based, human; settings: TMZ up to 20 mgml^−1 added 24 h before RRV-GFP, by day 19
Description: as §3, §5

U-87MG = assay: In vitro RRV-GFP spread (FACS); type: cell-based, human; settings: 10 mgml^−1 of TMZ
Description: as §3, §5

Tu-2449 = assay: In vitro RRV-GFP spread (FACS); type: cell-based, mouse; settings: TMZ up to 20 mgml^−1 added 24 h before RRV-GFP, by day 19
Description: as §3, §4

[5] = Dose finding study 5-FC and TMZ, hematological examination, healthy B6C3/F1 mice; type: in vivo, mouse
Description: A dose finding study was conducted in healthy B6C3/F1 hybrid mice to evaluate the clinical effects and possible hematological changes during concomitant administration of 5-FC and TMZ. Both drugs are known to cause hematological toxicity in some circumstances and therefore it is important to examine any potential drug interaction with respect to this potentially toxic side effect. Three concentrations of TMZ (25, 60 and 125 mgkg^−1) in combination with a fixed dose of 5-FC (500 mgkg^−1 per dose) were administered intraperitoneal SID for 4 consecutive days starting on days 1, 8, 22 and 36. Mice were terminated on day 51 for hematological examination.

[6] = Dose finding study 5-FC and TMZ, hematological examination, healthy athymic mice; type: in vivo, mouse
Description: To test the effect of the combination therapy of TMZ and Toca 511+5-FC treatment in a TMZ-sensitive cell line in vivo, the U-87MG cell line was used in an orthotopic xenograft glioma model in immunocompromised mice. A similar TMZ dose finding study as for the C3B6F1-immunocompetent mice was conducted in healthy athymic mice to evaluate the clinical effects and possible hematological changes during concomitant administration of 5-FC and TMZ. Two concentrations of TMZ (25 and 60 mgkg^−1) in combination with a fixed dose of 5-FC (500 mgkg^−1 per dose) were administered intraperitoneal SID for 4 consecutive days starting on days 1, 15, 29 and 43. Mice were terminated on day 53 for hematological examination.

human NET cell lines = settings: capecitabine and TMZ in human NET cell lines; cited from earlier work
[7] = highest TMZ dose (125 mgm^−2) coadministered with 5-FC

For `Nc1nc(=O)[nH]cc1F` [5-FC, 5-fluorocytosine], the “sensitivity to 5-FC (cell viability)” value ([1]; Toca 511-transduced U-87MG) was “sensitive to 5-FC in a dose-dependent manner”, the “sensitivity to 5-FC (cell viability)” value ([1]; naive (non-transduced) U-87MG, up to 100 mgml^−1 5-FC) was “highly resistant” and the “sensitivity to 5-FC (cell viability)” value ([2]; Toca 511-transduced Tu-2449) was “sensitive to 5-FC in a dose-dependent manner”. The “sensitivity to 5-FC (cell viability)” value ([2]; naive (non-transduced) Tu-2449, up to 100 mgml^−1 5-FC) was “highly resistant”.

In the case of `O=c1[nH]cc(F)c(=O)[nH]1` [5-FU, 5-fluorouracil], the “blood brain barrier passage” value [3] is given as “crosses the blood brain barrier”.

Work on `Cn1nnc2c(C(N)=O)ncn2c1=O` [TMZ, Temozolomide] yielded a GFP positivity [4] of ~100%, a GFP positivity (LN-229) of 100% and a GFP positivity (8-MG-BA) of 100%. The GFP positivity (LN-18) was ~100%, the cells killed (U-87MG) was ~90% and the GFP positivity (Tu-2449) was ~100%. For the same compound, the hematological changes ([5]; TMZ 25 mgkg^−1 per day (human equivalent of 75 mgm^−2) with 5-FC 500 mgkg^−1 per dose) was “without significant hematological changes”, the leukocytes [5, 7] was “almost complete loss” and the platelet counts [5, 7] was “significant reduction”. The hematological changes ([6]; TMZ 60 mgkg^−1 (human equivalent of 200 mgm^−2) in combination with 5-FC) was “substantially severe hematological changes (leukocytopenia, thrombocytopenia)”, the “increase in ALT activity” value ([6]; TMZ 60 mgkg^−1 in combination with 5-FC) was “five fold increase” and the “changes in hematological parameters” value ([6]; lower TMZ dose of 25 mgkg^−1 in combination with 5-FC) was “mild changes”.

For `CCCCCOC(=O)Nc1nc(=O)n([C@@H]2O[C@H](C)[C@@H](O)[C@H]2O)cc1F` [capecitabine], the “induction of apoptosis, combination effect” value (human NET cell lines) is listed as “synergistic”.
